Experimental findings from ChEMBL document CHEMBL1201862, “PubChem BioAssay data set” (2004) are described below.

Data set [1] concerns the target DNA dC->dU-editing enzyme APOBEC-3A (Homo sapiens, UniProt P31941). Kind of data set: APOBEC3A DNA deaminase inhibitors, dose response, biochemical (AID 504722). It counts as functional.
The target in data set [2] is DNA dC->dU-editing enzyme APOBEC-3G (Homo sapiens, UniProt Q9HC16). Kind of data set: Dose Response confirmation of small molecule APOBEC3G DNA Deaminase Inhibitors via a fluorescence-based single-stranded DNA deaminase assay. [Related pubchem assays (depositor defined):AID493012, AID493028]. It counts as functional.
DNA dC->dU-editing enzyme APOBEC-3G, sequence (Q9HC16 whole entry): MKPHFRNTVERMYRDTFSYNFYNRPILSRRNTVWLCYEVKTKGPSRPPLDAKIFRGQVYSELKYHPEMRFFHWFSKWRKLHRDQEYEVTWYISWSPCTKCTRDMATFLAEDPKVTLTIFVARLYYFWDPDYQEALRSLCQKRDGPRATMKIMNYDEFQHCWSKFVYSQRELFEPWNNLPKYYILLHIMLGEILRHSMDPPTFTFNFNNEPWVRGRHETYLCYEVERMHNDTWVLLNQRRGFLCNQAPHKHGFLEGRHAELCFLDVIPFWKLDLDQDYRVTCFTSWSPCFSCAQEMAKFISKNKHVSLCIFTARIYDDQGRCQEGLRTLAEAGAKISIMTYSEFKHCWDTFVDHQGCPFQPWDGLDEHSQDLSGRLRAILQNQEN
Data set [3] deals with T1, Apoptotic protease-activating factor 1 (Homo sapiens, UniProt O14727).
T1 sequence (O14727 whole entry): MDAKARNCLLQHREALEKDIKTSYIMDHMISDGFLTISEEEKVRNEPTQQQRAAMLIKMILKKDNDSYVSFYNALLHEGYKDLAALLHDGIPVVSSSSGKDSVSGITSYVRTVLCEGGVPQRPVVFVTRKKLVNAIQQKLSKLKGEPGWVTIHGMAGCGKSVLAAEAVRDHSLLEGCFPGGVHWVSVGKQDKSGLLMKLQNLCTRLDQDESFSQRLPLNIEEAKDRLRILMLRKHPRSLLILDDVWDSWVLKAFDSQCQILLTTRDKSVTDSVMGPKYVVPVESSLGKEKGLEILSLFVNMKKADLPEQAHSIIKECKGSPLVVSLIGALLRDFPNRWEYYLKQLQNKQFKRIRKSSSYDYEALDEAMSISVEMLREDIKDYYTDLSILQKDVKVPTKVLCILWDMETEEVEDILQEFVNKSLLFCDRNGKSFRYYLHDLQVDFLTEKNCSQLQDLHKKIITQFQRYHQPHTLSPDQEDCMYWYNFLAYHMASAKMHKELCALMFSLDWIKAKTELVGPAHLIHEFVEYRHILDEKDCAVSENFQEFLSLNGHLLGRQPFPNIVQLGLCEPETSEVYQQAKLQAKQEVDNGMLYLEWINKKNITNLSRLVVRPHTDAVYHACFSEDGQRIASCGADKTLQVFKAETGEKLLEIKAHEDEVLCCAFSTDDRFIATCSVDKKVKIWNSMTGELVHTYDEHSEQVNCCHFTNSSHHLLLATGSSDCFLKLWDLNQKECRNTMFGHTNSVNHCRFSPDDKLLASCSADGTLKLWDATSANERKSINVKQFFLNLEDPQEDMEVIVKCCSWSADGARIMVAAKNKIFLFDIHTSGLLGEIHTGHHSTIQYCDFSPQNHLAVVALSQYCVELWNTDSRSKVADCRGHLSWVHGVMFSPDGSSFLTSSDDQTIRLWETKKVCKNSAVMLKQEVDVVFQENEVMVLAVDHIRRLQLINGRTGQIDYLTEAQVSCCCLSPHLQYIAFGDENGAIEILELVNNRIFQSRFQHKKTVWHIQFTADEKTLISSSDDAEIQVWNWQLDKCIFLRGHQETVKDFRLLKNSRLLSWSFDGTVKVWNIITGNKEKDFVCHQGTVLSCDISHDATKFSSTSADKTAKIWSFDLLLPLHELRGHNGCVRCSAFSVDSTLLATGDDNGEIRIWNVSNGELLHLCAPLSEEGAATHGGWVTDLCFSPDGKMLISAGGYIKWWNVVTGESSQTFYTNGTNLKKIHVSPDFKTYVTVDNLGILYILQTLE
Kind of data set: activation of Apaf-1 mediated apoptosis – fluorescent, uHTS hits, dose response (AID 588554). The class given is functional.

Data set [4] has as its target T2, Small ubiquitin-related modifier 1 (Homo sapiens, UniProt P63165). Put plainly: inhibitors of SUMO1 peptide binding, dose response, biochemical, fluorescence polarization, uHTS hits (AID 624382). The class given is functional. The following applies: read-out: IC50_Mean. For orientation: Polarisation of emitted light reports the rotation of a fluorescent probe.
The target in data set [5] is T2, Small ubiquitin-related modifier 1. Put plainly: inhibitors of SUMO1 partner interactions, dose response, biochemical, FRET (AID 624383). It counts as functional. Particulars: read-out: IC50_Mean.
Another data set deals with T3, Cytochrome P450 1A2 (Homo sapiens, UniProt P05177).
T3 sequence (P05177 whole entry): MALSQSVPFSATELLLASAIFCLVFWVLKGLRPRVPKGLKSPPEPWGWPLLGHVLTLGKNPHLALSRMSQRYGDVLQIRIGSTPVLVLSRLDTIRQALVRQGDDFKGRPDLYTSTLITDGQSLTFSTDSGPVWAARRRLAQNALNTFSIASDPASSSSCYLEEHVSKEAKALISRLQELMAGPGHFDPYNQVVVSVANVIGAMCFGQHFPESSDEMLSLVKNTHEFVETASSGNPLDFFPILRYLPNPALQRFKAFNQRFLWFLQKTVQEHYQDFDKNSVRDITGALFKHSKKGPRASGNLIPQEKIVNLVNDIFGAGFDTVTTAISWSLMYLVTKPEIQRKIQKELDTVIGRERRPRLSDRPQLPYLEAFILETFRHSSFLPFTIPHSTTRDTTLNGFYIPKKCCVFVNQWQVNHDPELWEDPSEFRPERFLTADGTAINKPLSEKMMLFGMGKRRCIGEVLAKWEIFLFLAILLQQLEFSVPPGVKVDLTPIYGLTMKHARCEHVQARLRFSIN

The target of data set [6] is T4, CAAX prenyl protease 2 (Saccharomyces cerevisiae S288c, UniProt Q03530).
T4 sequence (Q03530 whole entry): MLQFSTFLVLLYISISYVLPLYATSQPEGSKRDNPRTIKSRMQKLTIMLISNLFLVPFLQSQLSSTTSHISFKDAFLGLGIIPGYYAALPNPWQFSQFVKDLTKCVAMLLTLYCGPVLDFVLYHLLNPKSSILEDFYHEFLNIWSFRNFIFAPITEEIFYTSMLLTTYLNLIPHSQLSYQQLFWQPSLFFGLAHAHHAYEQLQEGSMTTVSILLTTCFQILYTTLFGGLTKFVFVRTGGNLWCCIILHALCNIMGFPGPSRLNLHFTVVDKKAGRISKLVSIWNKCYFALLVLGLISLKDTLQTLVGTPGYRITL
It counts as biochemical.

Data set [7] can be described thus: mammalian cell cytotoxicity, dose response, cytotoxicity control, plate reader, cherry-pick samples (AID 504397). The class given is functional, cell-based.
The target of data set [8] is CAAX prenyl protease 2 (Homo sapiens, UniProt Q9Y256). Put plainly: human Rce1 protease inhibitors, dose response, biochemical, yeast membranes, quenched-peptide fluorescence, cherry-pick (AID 588849).
CAAX prenyl protease 2 (Homo sapiens, UniProt Q9Y256), sequence (Q9Y256 whole entry): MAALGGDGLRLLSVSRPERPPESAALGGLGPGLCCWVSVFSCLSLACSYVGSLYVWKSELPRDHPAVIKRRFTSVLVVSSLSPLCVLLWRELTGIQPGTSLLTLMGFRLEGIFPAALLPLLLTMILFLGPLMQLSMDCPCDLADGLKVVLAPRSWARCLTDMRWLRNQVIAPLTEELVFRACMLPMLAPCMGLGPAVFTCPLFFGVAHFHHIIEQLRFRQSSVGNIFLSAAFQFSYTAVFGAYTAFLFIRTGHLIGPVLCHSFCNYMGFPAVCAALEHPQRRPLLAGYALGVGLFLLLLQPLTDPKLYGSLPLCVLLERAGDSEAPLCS
Data set [9] is described as follows: cytotoxicity in NIH/3T3 mouse fibroblasts, dose response, cytotoxicity control, cell-based, mouse embryonic fibroblasts, dry powder, set 2 (AID 493247). It counts as functional. Particulars: Fibroblast.
For the next data set, the system named is Trypanosoma cruzi. Put plainly: growth inhibition of intracellular Trypanosoma cruzi, dose response, cell-based, plate reader, dry powder, set 3 (AID 493197). It counts as functional.
Data set [10] in a line: inhibitors of Trypanosoma cruzi host-cell infection, confirmation, beta-gal luminescence, NIH3T3 host cells (AID 2630). The class given is functional, cell-based. The following applies: Mus musculus.
Data set [11] concerns the target T5, Mannose-6-phosphate isomerase (Homo sapiens, UniProt P34949).
T5 sequence (P34949 whole entry): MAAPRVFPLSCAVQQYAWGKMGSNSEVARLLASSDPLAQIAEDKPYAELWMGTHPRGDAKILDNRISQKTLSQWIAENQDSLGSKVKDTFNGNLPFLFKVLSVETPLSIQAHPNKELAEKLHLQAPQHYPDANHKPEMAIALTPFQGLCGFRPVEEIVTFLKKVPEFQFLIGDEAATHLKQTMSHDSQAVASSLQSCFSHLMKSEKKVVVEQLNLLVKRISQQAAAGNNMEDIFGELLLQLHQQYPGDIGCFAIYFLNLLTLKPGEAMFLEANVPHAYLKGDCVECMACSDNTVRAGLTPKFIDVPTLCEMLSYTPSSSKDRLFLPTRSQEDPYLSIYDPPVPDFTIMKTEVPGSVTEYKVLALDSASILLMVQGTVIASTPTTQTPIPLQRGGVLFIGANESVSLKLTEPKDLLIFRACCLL
Put plainly: PMI enzyme inhibitors, confirmation, biochemical, fluorescence intensity (AID 1535).

The target in the next data set is Phosphomannomutase 2 (Homo sapiens, UniProt O15305). Put plainly: Counter screen SAR assay for PMM2 inhibitors via a fluorescence intensity assay. [Related pubchem assays (depositor defined):AID1545, AID1574]. For orientation: The purpose of a counterscreen is to sort out artefacts and off-target activity.
Phosphomannomutase 2, sequence (O15305 whole entry): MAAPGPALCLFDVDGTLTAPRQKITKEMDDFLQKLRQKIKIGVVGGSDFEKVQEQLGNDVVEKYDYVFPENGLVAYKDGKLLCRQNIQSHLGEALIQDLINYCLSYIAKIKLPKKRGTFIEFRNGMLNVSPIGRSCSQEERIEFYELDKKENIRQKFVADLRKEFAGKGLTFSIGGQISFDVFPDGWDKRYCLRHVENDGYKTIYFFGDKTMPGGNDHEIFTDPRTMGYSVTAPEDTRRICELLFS
The target of a further data set is T6, Hexokinase-1 (Homo sapiens, UniProt P19367).
T6 sequence (P19367 whole entry): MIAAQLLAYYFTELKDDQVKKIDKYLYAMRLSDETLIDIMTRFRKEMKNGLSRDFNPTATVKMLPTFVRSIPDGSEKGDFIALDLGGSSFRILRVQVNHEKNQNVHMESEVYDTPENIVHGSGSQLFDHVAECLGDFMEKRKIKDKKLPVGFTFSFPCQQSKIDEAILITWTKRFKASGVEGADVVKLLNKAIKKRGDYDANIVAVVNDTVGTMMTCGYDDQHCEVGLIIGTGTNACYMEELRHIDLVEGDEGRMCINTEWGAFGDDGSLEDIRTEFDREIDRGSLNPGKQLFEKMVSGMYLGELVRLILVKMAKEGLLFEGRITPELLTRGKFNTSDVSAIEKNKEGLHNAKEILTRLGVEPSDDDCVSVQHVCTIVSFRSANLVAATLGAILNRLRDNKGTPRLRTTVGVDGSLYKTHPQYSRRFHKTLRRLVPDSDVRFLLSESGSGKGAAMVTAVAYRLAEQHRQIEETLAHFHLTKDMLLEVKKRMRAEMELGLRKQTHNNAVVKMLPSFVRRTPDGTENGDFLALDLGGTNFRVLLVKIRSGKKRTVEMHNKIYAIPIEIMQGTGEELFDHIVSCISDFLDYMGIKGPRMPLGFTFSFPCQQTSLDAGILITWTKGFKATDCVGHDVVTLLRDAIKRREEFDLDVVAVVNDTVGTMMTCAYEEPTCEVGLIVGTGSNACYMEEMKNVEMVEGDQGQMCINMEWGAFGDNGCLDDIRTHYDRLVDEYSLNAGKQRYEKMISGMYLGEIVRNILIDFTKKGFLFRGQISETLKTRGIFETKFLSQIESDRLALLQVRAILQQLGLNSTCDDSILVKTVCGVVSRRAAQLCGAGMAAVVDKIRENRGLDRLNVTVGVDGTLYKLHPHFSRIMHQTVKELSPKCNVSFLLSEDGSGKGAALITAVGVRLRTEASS
Kind of data set: HK1 enzyme inhibition by HKDC1 hits, SAR follow-up, selectivity assay for HKDC1 inhibitor project, biochemical, set 2, resazurin fluorescence coupled readout (AID 588356). It counts as functional. For orientation: Alamar Blue is a resazurin reagent that responds to reducing activity.

For the next data set, the target named is T7, Hexokinase HKDC1 (Homo sapiens, UniProt Q2TB90).
T7 sequence (Q2TB90 whole entry): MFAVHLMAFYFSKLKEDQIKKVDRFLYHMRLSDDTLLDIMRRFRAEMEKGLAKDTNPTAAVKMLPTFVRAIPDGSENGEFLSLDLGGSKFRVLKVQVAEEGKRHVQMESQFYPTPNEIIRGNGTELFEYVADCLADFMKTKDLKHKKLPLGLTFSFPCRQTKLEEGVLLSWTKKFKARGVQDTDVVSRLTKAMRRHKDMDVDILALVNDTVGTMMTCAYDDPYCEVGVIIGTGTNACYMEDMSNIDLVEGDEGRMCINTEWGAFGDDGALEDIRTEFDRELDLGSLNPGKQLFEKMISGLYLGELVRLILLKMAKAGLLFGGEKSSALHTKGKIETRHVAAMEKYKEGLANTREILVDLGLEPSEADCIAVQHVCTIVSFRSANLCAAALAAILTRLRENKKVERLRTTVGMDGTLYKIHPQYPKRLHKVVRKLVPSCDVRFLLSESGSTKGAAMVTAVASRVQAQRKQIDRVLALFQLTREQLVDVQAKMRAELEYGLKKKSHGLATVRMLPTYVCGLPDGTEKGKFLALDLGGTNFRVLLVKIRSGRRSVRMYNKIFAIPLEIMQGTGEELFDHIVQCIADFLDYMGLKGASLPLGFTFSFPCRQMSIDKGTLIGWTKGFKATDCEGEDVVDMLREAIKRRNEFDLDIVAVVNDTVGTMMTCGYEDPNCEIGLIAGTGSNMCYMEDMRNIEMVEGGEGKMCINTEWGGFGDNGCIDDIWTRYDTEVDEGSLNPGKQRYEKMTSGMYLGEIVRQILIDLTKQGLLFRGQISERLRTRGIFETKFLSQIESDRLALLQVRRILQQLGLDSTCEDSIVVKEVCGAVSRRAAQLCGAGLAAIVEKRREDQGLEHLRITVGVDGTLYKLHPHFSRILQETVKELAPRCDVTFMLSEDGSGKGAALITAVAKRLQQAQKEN
Kind of data set: HKDC1 hexokinase inhibitors, SAR follow-up, biochemical, set 2 (AID 588355). The class given is functional.

Calls of active or inactive are those of the source. Where only a bound is given, the exact number is not on record here.

As usually defined, the EC50 is the concentration that produces a half-maximal response. In general, AC50 refers to the concentration giving half of the maximal activity seen.

T2 sequence (P63165 whole entry): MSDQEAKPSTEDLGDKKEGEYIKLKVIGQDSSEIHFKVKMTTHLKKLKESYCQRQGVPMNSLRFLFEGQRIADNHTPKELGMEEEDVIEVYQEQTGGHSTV
DNA dC->dU-editing enzyme APOBEC-3A, sequence (P31941 whole entry): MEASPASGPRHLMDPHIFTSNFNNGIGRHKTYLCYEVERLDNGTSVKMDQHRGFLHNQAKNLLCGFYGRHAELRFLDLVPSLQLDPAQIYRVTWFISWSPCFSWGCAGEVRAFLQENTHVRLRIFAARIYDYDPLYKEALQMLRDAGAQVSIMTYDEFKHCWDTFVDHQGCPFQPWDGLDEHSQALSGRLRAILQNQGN

Take `C=C(C)C(=O)Nc1cccc(C2=NOC3(C2)C[C@H](C(N)=O)N(C(=O)c2ccccc2C(=O)c2ccccc2)C3)c1` (stereo partly specified): the IC50 in data set [1] is > 100 µM (inactive); in data set [2], 8.19 µM (active); in [4] it was > 66.6 µM (inactive); in data set [5] it was 2.73 µM (active). In addition, in data set [3], the EC50 was 3.71 µM (active).

For `N[C@H]1[C@@H](C(=O)O)[C@H]2C=C[C@H]1C2.O=S(=O)(O)c1ccccc1`, the AC50 entry on Cytochrome P450 1A2 was “inactive”.

As to `Clc1ccc(CN2CCc3c([nH]c4ccccc34)C2)cc1Cl`, the AC50 on CAAX prenyl protease 2 [6] is 2.03 µM (active); in data set [7], 18.3 µM (active); on CAAX prenyl protease 2 [8] it was 13.9 µM (active).

Consider `COc1ccccc1CN1CCCC(C(=O)N(C)Cc2ccccc2)C1` (stereo unspecified), for which the values for the AC50 (in [9]; with Trypanosoma cruzi) were 73.3 µM (active) and 10.8 µM (active), respectively. In data set [10], the EC50 is 0.856 µM (active).

With `CCc1cc(CC)c(/N=c2\ssnc2Cl)c(CC)c1`, the IC50 (in data set [11]; on Phosphomannomutase 2) was > 100 µM (inactive) in each case.

Regarding `COc1cccc(N2C(=O)c3cccnc3C2Nc2ccc(C)c(C)c2)c1` (stereo unspecified), the IC50 on Hexokinase-1 and at Hexokinase HKDC1 was > 80 µM (inactive) in each case.
